Here are results for 15 compounds from PMC9268552, “Synthesis of Pyrimidine Conjugates with 4-(6-Amino-hexanoyl)-7,8-difluoro-3,4-dihydro-3-methyl-2H-[1,4]benzoxazine and Evaluation of Their Antiviral Activity” (Molecules, 2022).

“And” between values parts separate entries of the source, which are not always exact repeats. Equal values may be shown once. Read-outs that look alike come from different tables or passages of the source.

In data set [1] the test system is influenza virus A/Puerto Rico/8/34 (H1N1). To be noted: influenza A/Puerto Rico/8/34 (H1N1); MDCK cells.
Data set [2] relates to HSV-1/L2/R. Put plainly: microbe, parasite or virus in culture. The following applies: for SI (CC50/IC50): HSV-1/L2/R (acyclovir-resistant), Vero E6 cells; for IC50: Human alphaherpesvirus 1, Vero C1008, read-out: IC50 (50% inhibition of virus-induced CPE). An excerpt:
(§1) The anti-herpesvirus activity of the synthesized compounds 5a–e was studied against the reference strain HSV-1/L2 and the acyclovir-resistant strain HSV-1/L2/R in the Vero E6 cells (Table 1) by suppressing the virus-induced cytopathogenic effect (CPE) as described previously. Acyclovir, Foscarnet (sodium phosphonoformate hexahydrate), a drug of choice in clinical practice in case of inefficiency of acyclovir and related compounds, including cases of drug resistance, and Ribavirin, were used as reference drugs. To assess the cytotoxicity of the studied compounds, the percentage of viable and non-viable cells was determined using Trypan blue exclusion assay.

In data set [3] the test system is HSV-1/L2. Description: Suppression of virus-induced cytopathogenic effect (CPE), reference strain HSV-1/L2 in Vero E6 cells. The following applies: for IC50: Human alphaherpesvirus 1, Vero C1008, read-out: IC50 (50% inhibition of virus-induced CPE).
Description: as §1
(In general: Protection from cytopathic effect is a common read-out in antiviral testing.)

The test system of data set [4] is influenza virus A/Puerto Rico/8/34 (H1N1). Description: organism not typed. To be noted: MDCK, read-out: IC50 (50% inhibition of virus-induced CPE).
Data set [5] is described as follows: Cytotoxicity in Vero E6 cells (Trypan blue exclusion assay). To be noted: African green monkey.
Description: as §1

Data set [6] can be described thus: in vitro. The following applies: dog.
In data set [7] the test system is HSV-1/L2. To be noted: cited from earlier work.
In data set [8] the test system is HSV-1/L2/R. To be noted: HSV-1/L2/R (acyclovir-resistant); Vero E6 cells; data for comparison; ref [27]; cited from earlier work.
In data set [9] the test system is influenza virus A/Puerto Rico/8/34 (H1N1). The following applies: influenza A/Puerto Rico/8/34 (H1N1), MDCK cells, data for comparison, ref [31], cited from earlier work.
Data set [10] concerns MDCK cells. To be noted: read-out: CC50 ± SD, data for comparison, ref [31]; cited from earlier work.
Data set [11] concerns Vero E6 cells. The following applies: read-out: CC50 ± SD, data for comparison, ref [27]; cited from earlier work.

As for `C[C@@H]1COc2c(ccc(F)c2F)N1C(=O)CCCCCNc1ccnc(N)n1.C[C@@H]1COc2c(ccc(F)c2F)N1C(=O)CCCCCNc1ccnc(N)n1.O.O.O` (racemic) (hydrate or solvate) [(RS)-5a, (RS)-4-[6-(2-Aminopyrimidin-4-yl)aminohexanoyl]-7,8-difluoro-3,4-dihydro-3-methyl-2H-[1,4]benzoxazine Sesquihydrate], the melting point lay in the range of 59 to 60 °C.
Consider `C[C@@H]1COc2c(ccc(F)c2F)N1C(=O)CCCCCNc1ccnc(N)n1.C[C@@H]1COc2c(ccc(F)c2F)N1C(=O)CCCCCNc1ccnc(N)n1.O.O.O` (racemic) [(RS)-5a, (RS)-4-[6-(2-Aminopyrimidin-4-yl)aminohexanoyl]-7,8-difluoro-3,4-dihydro-3-methyl-2H-[1,4]benzoxazine Sesquihydrate], for which the “SI (CC50/IC50)” value is above 1 in data set [1]; 8 in [2]; 8 and 8.1 in data set [3] (HSV-1/L2, Vero E6 cells). The IC50 in data set [2] came to 18.6 µM; in data set [3], 18.6 µM; in data set [4] it was 8 ± 1 µM. For the same compound, the CC50 in data set [5] stood at 151 ± 8.36 µM; in data set [6] it was 11 ± 1 µM.
In turn, `C[C@H]1COc2c(ccc(F)c2F)N1C(=O)CCCCCNc1ccnc(N)n1.O` (hydrate or solvate) [(S)-5a, (S)-4-[6-(2-Aminopyrimidin-4-yl)aminohexanoyl]-7,8-difluoro-3,4-dihydro-3-methyl-2H-[1,4]benzoxazine Hydrate] gave a melting point of 78 to 80 °C.
In the case of `C[C@H]1COc2c(ccc(F)c2F)N1C(=O)CCCCCNc1ncnc2[nH]cnc12` [(S)-1], the “SI (CC50/IC50)” value in data set [7] (Vero E6 cells, data for comparison, ref [27]) is reported as 64; in data set [8], 64 ^1; in data set [9], >2 ^1. For the same compound, the 50% inhibitory concentration (IC50) was 4.6 µM in data set [7] (read-out: IC50 (50% inhibition of virus-induced CPE), Vero E6 cells, data for comparison, ref [27]) and above 10 µM in data set [9] (read-out: IC50 (50% inhibition of virus-induced CPE)). Moreover, the CC50 is 24 ± 1 µM in [10] and 293 ± 15.5 µM in [11].
Take `CC1COc2c(ccc(F)c2F)N1C(=O)CCCCCNc1cc(Cl)ncn1` (racemic) [(RS)-5c, (RS)-4-[6-(6-Chloropyrimidin-4-yl)aminohexanoyl]-7,8-difluoro-3,4-dihydro-3-methyl-2H-[1,4]benzoxazine]: the melting point was 101 to 103 °C. In addition, in [1], the “SI (CC50/IC50)” value came out at 1. Besides, in [2], the “SI (CC50/IC50)” value is reported as 2 and the IC50 was found to be 152 µM. Besides, in data set [3] (HSV-1/L2, Vero E6 cells), the “SI (CC50/IC50)” value is on record as above 2.0. Also, in data set [3], the half-maximal inhibitory concentration (IC50) stood at 148 µM. Besides, in data set [4], the IC50 is above 8 µM. This compound also had a CC50 in [5] above 304 µM. In addition, the CC50 in data set [6] amounted to 9 ± 1 µM.
For the compound `C[C@H]1COc2c(ccc(F)c2F)N1C(=O)CCCCCNc1ccnc(N)n1.O` [(S)-5a, (S)-4-[6-(2-Aminopyrimidin-4-yl)aminohexanoyl]-7,8-difluoro-3,4-dihydro-3-methyl-2H-[1,4]benzoxazine Hydrate], the “SI (CC50/IC50)” value in [1] is above 3; in data set [2] it was below 4; in data set [3] (HSV-1/L2, Vero E6 cells), 3.7. Besides, the concentration for half-maximal inhibition (IC50) in data set [2] was 9.27 µM; in [3], 9.27 µM; in data set [4] it was 7 ± 1 µM. For the same compound, the CC50 was 34.6 ± 0.88 µM in [5] and 23 ± 1.2 µM in data set [6].
Consider `CC1COc2c(ccc(F)c2F)N1C(=O)CCCCCNc1ncccn1` (racemic) [(RS)-5d, (RS)-7,8-Difluoro-3,4-dihydro-3-methyl-4-[6-(pyrimidin-2-yl)aminohexanoyl]-2H-[1,4]benzoxazine], for which the melting point lay in the range of 106 to 108 °C. In data set [2], the “SI (CC50/IC50)” value is recorded as below 2 and the IC50 came out at 297 µM. Moreover, the “SI (CC50/IC50)” value in [3] (HSV-1/L2, Vero E6 cells) came to 1.7. Also, in data set [3], the IC50 amounted to 297 µM. In addition, the 50% inhibitory concentration (IC50) in data set [4] was above 88 µM. In [5], this compound showed a CC50 of 505 ± 17.7 µM. For the same compound, the CC50 in data set [6] amounted to 257 ± 12 µM.
Regarding `CCC(CC)O[C@@H]1C=C(C(=O)O)C[C@H](N)[C@H]1NC(C)=O` [Oseltamivir carboxylate, reference compound], the “SI (CC50/IC50)” value in data set [1] is reported as above 667. In addition, the IC50 in data set [4] stood at 0.3 µM. The same compound displayed a CC50 in data set [6] above 200 µM.
For the compound `O=C(O)P(=O)(O)O` [Foscarnet, sodium phosphonoformate hexahydrate, reference compound], in data set [2], the “SI (CC50/IC50)” value is recorded as above 4 and the IC50 came to 104 µM. For the same compound, in [3], the “SI (CC50/IC50)” value is given as above 4 and the half-inhibitory concentration (IC50) came out at 104 µM. In addition, the CC50 in [5] is above 417 µM.
In the case of `Nc1nc2c(ncn2COCCO)c(=O)[nH]1` [Acyclovir, reference compound], in data set [2], the “SI (CC50/IC50)” value was found to be 1 and the IC50 is above 444 µM. In [3], the “SI (CC50/IC50)” value is above 256 and the IC50 was found to be 1.73 µM. In [5], this compound came in with a CC50 above 444 µM.
For `NC(=O)c1ncn([C@@H]2O[C@H](CO)[C@@H](O)[C@H]2O)n1` [Ribavirin, reference compound], in [2], the “SI (CC50/IC50)” value is above 4 and the IC50 amounted to 1020 µM. In addition, in data set [3], the “SI (CC50/IC50)” value was above 4 and the half-inhibitory concentration (IC50) worked out at 1020 µM. For the same compound, the CC50 in [5] was above 4100 µM.
`C[C@@H]1COc2c(ccc(F)c2F)N1C(=O)CCCCCNc1ncnc2[nH]ccc12.C[C@@H]1COc2c(ccc(F)c2F)N1C(=O)CCCCCNc1ncnc2[nH]ccc12.O` (racemic) (hydrate or solvate) [(RS)-5e, (RS)-7,8-Difluoro-3,4-dihydro-3-methyl-4-[6-(7H-pyrrolo[2,3-d]pyrimidin-4-yl)aminohexanoyl]-2H-[1,4]benzoxazine Hemihydrate] showed a melting point of 86 to 88 °C.
Take `C[C@H]1COc2c(ccc(F)c2F)N1C(=O)CCCCCNc1ncnc2[nH]ccc12` [(S)-5e, (3S)-7,8-Difluoro-3,4-dihydro-3-methyl-4-[6-(7H-pyrrolo[2,3-d]pyrimidin-4-yl)aminohexanoyl]-2H-[1,4]benzoxazine]: the melting point fell in the range of 87 to 89 °C. Besides, the “SI (CC50/IC50)” value in [1] was below 2. In addition, in [2], the “SI (CC50/IC50)” value is 6 and the concentration for half-maximal inhibition (IC50) turned out to be 75.2 µM. Further, the “SI (CC50/IC50)” value in data set [3] (HSV-1/L2, Vero E6 cells) was 6 and 6.3. Further, the IC50 in [3] came out at 74.2 µM. Moreover, the IC50 in data set [4] was above 26 µM. This compound also returned a CC50 in data set [5] of 469 ± 10.8 µM. The same compound gave a CC50 in [6] of 47 ± 3 µM.
Consider `CC1COc2c(ccc(F)c2F)N1C(=O)CCCCCNc1cc(Cl)nc(N)n1` (racemic) [(RS)-5b, (RS)-4-[6-(2-Amino-6-chloropyrimidin-4-yl)aminohexanoyl]-7,8-difluoro-3,4-dihydro-3-methyl-2H-[1,4]benzoxazine], for which the melting point lay within 92 to 94 °C. Besides, the “SI (CC50/IC50)” value in [1] is listed as below 8. Besides, in data set [2], the “SI (CC50/IC50)” value was below 4 and the IC50 was determined as 73.4 µM. The “SI (CC50/IC50)” value in [3] (HSV-1/L2, Vero E6 cells) came to 3.7. In addition, the 50% inhibitory concentration (IC50) in [3] turned out to be 73.4 µM. In data set [4], the 50% inhibitory concentration (IC50) turned out to be 92 ± 11 µM. The compound also came in with a CC50 in data set [5] of 275 ± 4.3 µM. This compound yielded a CC50 in data set [6] of 705 ± 42 µM.
Turning to `C[C@@H]1COc2c(ccc(F)c2F)N1C(=O)CCCCCNc1ncnc2[nH]ccc12.C[C@@H]1COc2c(ccc(F)c2F)N1C(=O)CCCCCNc1ncnc2[nH]ccc12.O` (racemic) [(RS)-5e, (RS)-7,8-Difluoro-3,4-dihydro-3-methyl-4-[6-(7H-pyrrolo[2,3-d]pyrimidin-4-yl)aminohexanoyl]-2H-[1,4]benzoxazine Hemihydrate], the “SI (CC50/IC50)” value in data set [1] is 1; in data set [2] it was below 1; in data set [3] (HSV-1/L2, Vero E6 cells), below 1. Moreover, the IC50 in data set [2] was 18.6 µM; in data set [3], 18.6 µM; in data set [4], above 80 µM. The CC50 in data set [5] came out at 17.6 ± 0.85 µM; in data set [6], 86 ± 4 µM.

A word on the melting point: it is the temperature of the solid-liquid transition. A word on the IC50: it is the point on the concentration scale where inhibition reaches its midpoint.
